In paper PMC8673761, “CLN7 is an organellar chloride channel regulating lysosomal function” (Science Advances, 2021):
Numbering of substitutions follows the chain as printed.

What was measured:
hCLN7 (EGFP-CLN7, MFSD8) [1] = molecular target: T1, hCLN7 (EGFP-CLN7, MFSD8) (Homo sapiens, UniProt Q8NHS3); assay: whole-endolysosomal patch clamp, Cl- current; format: cell-based
T1 construct: full length, 518 residues, N-terminal EGFP tag kept (pEGFP-C2); expressed in HEK293T (endolysosomes); PM-targeted mutant in HeLa
T1 sequence (Q8NHS3 1-518): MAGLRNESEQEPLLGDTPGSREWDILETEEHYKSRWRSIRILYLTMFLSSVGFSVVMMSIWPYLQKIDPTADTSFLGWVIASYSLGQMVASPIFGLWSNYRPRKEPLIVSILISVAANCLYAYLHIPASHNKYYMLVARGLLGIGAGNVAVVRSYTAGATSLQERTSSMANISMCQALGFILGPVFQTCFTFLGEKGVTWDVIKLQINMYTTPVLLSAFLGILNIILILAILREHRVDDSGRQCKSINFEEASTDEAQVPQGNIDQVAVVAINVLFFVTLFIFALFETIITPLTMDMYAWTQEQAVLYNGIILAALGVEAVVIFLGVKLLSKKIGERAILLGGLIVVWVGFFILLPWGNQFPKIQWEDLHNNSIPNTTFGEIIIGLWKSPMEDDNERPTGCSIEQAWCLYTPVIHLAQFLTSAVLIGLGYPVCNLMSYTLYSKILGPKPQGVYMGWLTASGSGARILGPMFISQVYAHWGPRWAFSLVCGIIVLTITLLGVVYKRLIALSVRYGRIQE

[2] = molecular target: T2, YCR023C (yeast CLN7 homolog) (Saccharomyces cerevisiae, UniProt P25351); assay: whole-cell patch clamp in HeLa, Cl- current; format: cell-based, Homo sapiens; conditions: EGFP-tagged; bath 150 mM HCl pH 4.6 (NMDG), pipette pH 7.2
T2 construct: full length, codon-optimised synthetic gene, N-terminal EGFP tag kept (pEGFP-C1); expressed in HeLa cells
T2 sequence (P25351 1-611): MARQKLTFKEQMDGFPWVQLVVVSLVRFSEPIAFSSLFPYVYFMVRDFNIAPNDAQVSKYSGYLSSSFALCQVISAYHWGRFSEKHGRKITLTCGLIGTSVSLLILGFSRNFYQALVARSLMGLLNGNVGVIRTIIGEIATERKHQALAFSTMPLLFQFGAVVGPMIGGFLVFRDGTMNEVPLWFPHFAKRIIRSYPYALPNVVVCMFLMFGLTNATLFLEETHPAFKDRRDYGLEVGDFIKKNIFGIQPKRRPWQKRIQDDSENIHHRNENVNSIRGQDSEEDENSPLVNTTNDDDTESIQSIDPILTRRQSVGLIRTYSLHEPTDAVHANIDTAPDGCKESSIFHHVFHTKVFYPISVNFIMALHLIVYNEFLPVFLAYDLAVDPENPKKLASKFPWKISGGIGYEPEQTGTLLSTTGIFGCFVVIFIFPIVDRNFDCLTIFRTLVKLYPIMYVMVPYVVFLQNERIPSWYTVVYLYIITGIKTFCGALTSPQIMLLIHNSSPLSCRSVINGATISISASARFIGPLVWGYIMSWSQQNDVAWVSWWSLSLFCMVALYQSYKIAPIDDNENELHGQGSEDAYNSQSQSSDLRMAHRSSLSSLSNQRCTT

hCLN7 (EGFP-CLN7, MFSD8) [3] = molecular target: T3, hCLN7 (EGFP-CLN7, MFSD8) (Homo sapiens, UniProt Q8NHS3, L13A/L14A); assay: whole-cell patch clamp in HeLa, Cl- current; format: cell-based; conditions: EGFP-tagged, plasma membrane-targeted; bath 150 mM HCl pH 4.6 (NMDG), pipette pH 7.2
T3 construct: full length, 518 residues, N-terminal EGFP tag kept (pEGFP-C2); expressed in HEK293T (endolysosomes); PM-targeted mutant in HeLa
T3 sequence (Q8NHS3 1-518 L13A/L14A): T1 sequence (Q8NHS3 1-518) with L13A, L14A

SMILES | IC50 (hCLN7 (EGFP-CLN7, MFSD8) [1]) [µM] | whole-cell patch clamp in HeLa, Cl- current [2] | whole-cell patch clamp in HeLa, Cl- current (hCLN7 (EGFP-CLN7, MFSD8) [3])
O=S(=O)(O)c1cc(N=C=S)ccc1/C=C/c1ccc(N=C=S)cc1S(=O)(=O)O [DIDS, 4,4‘-diisothiocyano-2,2‘-stilbenedisulfonate] | 32.3 ± 6.08 | including outward rectification and sensitivities to DIDS, NFA, and NPPB | –
O=C(O)c1cccnc1Nc1cccc(C(F)(F)F)c1 [NFA] | 42.4 ± 7.13 | including outward rectification and sensitivities to DIDS, NFA, and NPPB | the whole-cell currents were also outward-rectifying and sensitive to pH, DIDS, NFA, and NPPB
O=C(O)c1cc([N+](=O)[O-])ccc1NCCCc1ccccc1 [NPPB, 5-Nitro-2-(3-phenylpropylamino)benzoic acid] | 0.0069 ± 0.00157 | including outward rectification and sensitivities to DIDS, NFA, and NPPB | the whole-cell currents were also outward-rectifying and sensitive to pH, DIDS, NFA, and NPPB
